{"source": "patent US20140056952A1", "about": "“METHODS AND COATINGS FOR TREATING BIOFILMS” (President and Fellows of Harvard College, priority 2011, published 2014)", "key": {"[1]": {"tested_on": "B. subtilis strain NCBI3610", "assay": "Pellicle (biofilm) formation inhibition assay in liquid biofilm-inducing medium", "format": "cell-based, Bacillus subtilis", "details": "for concentration needed for inhibition of biofilm formation: B. subtilis pellicle formation; for biofilm-inhibitory activity (library of polyamines): B. subtilis; for inhibition of pellicle formation: final concentration of 50 μM", "protocol": "Bacillus subtilis strains PY79, 3610 and their derivatives were grown in Luria-Bertani (LB) medium at 37° C. or MSgg medium (1) at 23° C. Solid media contained 1.5% Bacto agar. When appropriate, antibiotics were added at the following concentrations for growth of B. subtilis: 10 μg per ml of tetracycline, and 5 μg per ml of erythromycin, 500 μg per ml of spectinomycin.\nB. subtilis strain NCBI3610 was grown at 22° C. in 12-well plates in liquid biofilm-inducing medium for 3 or 8 days. Conditioned medium (500 ml) from an 8-day-old culture was concentrated on the C-18 column and eluted step-wise with methanol.\nTo identify the second biofilm-inhibiting factor, high-performance liquid chromatography (HPLC) was carried out on the 25% methanol eluate using a phenyl-hexyl column. […] Cells of NCBI3610 were grown in fresh medium containing PBS buffer (control), norspermidine (100 μM), morpholine (100 μM) HPLC-purified fatty acid (˜100 μM), or spermidine (100 μM).\nPellicle formation of strain NCBI 3610 was tested in the presence of the indicated concentrations of norspermidine (FIG. 1D) or spermidine (FIG. 1E).\nTo identify features of norspermidine important for its biofilm disassembly activity, we tested a library of polyamines in our biofilm inhibition assay (FIGS. 9A, 9B, 10 and Table 2).\nThe effect of polyamines on pellicle formation by B. subtilis was examined. B. subtilis wild-type cells were grown to a mid-logarithmic phase and diluted 1:1000 in biofilm media applied with each polyamine to the final concentration of 50 μM.\nThe effect of cyclic polyamines on biofilm formation by B. subtilis was examined. B. subtilis wild-type cells were grown to a mid-logarithmic phase and diluted 1:1000 in biofilm media (18A) or in a medium applied with cyclic compound 1,5,9-Triazacyclododecane to the final concentration of 50 μM (18B)."}, "[2]": {"tested_on": "exopolysaccharide of E. coli cells", "assay": "Fluorescence microscopy of exopolysaccharide staining", "format": "cell-based, Escherichia coli", "excerpt": "(§1) In testing E. coli, the biofilm-proficient strain MC4100 was selected because a major component of exopolysacchride is colanic acid (Danese et al., 2000; Price and Raivio, 2009)."}, "E. coli strain MC4100": {"tested_on": "E. coli strain MC4100", "assay": "Submerged biofilm formation, crystal violet staining", "format": "cell-based, Escherichia coli", "details": "library tested at 500 μM", "protocol": "(§2) The compounds were tested at 500 μM. Biofilm formation was visualized by crystal violet staining of submerged biofilms.\n(§3) Whether polyamines might prevent biofilm formation by other bacteria that produce an exopolysaccharide matrix was examined. […] The compounds were tested at 500 μM. Biofilm formation was visualized by crystal violet staining of submerged biofilms.\nas §1"}, "[3]": {"tested_on": "Proteus mirabilis strain BB2000", "assay": "Biofilm formation in polystyrene wells, crystal violet OD 595 nm", "format": "cell-based", "details": "1 mM, 48 hours at 30° C., vs no treatment control", "protocol": "To examine the effects of polyamines on biofilm formation, wells were initially treated with water (no treatment), 1 mM norspermidine, and 1 mM norspermine in 3 ml M9+glucose before inoculation with P. mirabilis. Biofilms were permitted to grow for 48 hours at 30° C. without shaking The amount of biofilm formed was assessed with the standard assay of crystal violet staining (O'Toole G et al., Biofilm formation as microbial development, Annu Rev. Microbiol. (2000) 54:49-79); supernatant was removed from the wells and crystal violet (at […]) was then incubated in each well for 15 minutes at room temperature, followed by removal of the crystal violet from the wells and a subsequent washes with water. Any crystal violet attached the wells was next solubilized with 95% ethanol for 15 minutes at room temperature, and the subsequent optical density at 595 nm in each well was measured with a multiplate reader."}, "[4]": {"tested_on": "B. subtilis wild-type cells", "assay": "Biofilm formation on solid biofilm medium", "format": "cell-based, Bacillus subtilis", "details": "1 μl cells mixed with 1 μl (1 mM) polyamine", "protocol": "B. subtilis wild-type cells were grown to a mid-logarithmic phase and 1 μl of cells was mixed with 1 μl (1 mM) of each polyamine. The mixture was plated on solid biofilm medium.\nB. subtilis wild-type cells were grown to a mid-logarithmic phase and 1 μl of cells was either mixed with PBS (18C) or mixed with 1 μl (1 mM) of each polyamine (18D). The mixture was plated on solid biofilm medium. “3*” refers to 1,5,9-Triazacyclododecane."}, "[5]": {"tested_on": "B. subtilis strain NCBI3610", "assay": "Pellicle (biofilm) formation inhibition assay in liquid biofilm-inducing medium", "format": "cell-based, Bacillus subtilis"}, "TasA-mCherry": {"tested_on": "TasA-mCherry", "assay": "Fluorescence microscopy of TasA-mCherry fusion", "format": "cell-based, Bacillus subtilis", "details": "norspermidine 50 μM", "protocol": "NCBI 3610 containing the tasA-mCherry fusion (DR30) was grown without shaking in a biofilm medium (upper row) or in the same medium applied with norspermidine (50 μM, lower row). Cells were washed in PBS, and visualized by fluorescence microscopy.\n(§4) To investigate further, exopolysaccharide was visualized by fluorescence microscopy using a conjugate of the carbohydrate-binding protein concanavalin A with Texas Red (FIG. 5) (McSwain et al., 2005). As evidence of specificity, the conjugate decorated wild-type cells but not cells from a mutant (Δeps) blocked in exopolysaccharide production (FIG. 6A). Indeed, at an exposure at which concanavalin A staining with the wild type strain gave an extremely bright fluorescent signal, little or no signal could be detected for the Δeps mutant, except at long exposures and enhanced brightness (FIG. 6A). Next, we investigated the effects of norspermidine and spermidine. […] Therefore, the difference in the staining was evidently due to differential levels of cell-associated exopolysaccharide. […] Thus, while not being bound to any theory, it is believed that norspermidine disrupts the matrix and by targeting exopolysaccharide."}, "[6]": {"tested_on": "exopolysaccharide of S. aureus cells", "assay": "Fluorescence microscopy of exopolysaccharide staining", "format": "cell-based, Staphylococcus aureus"}, "[7]": {"tested_on": "P. aeriginosa strain PA14", "assay": "Biofilm formation on solid M63 medium", "format": "cell-based, Pseudomonas aeruginosa", "details": "1 μl cells mixed with 1 μl (10 mM) polyamine", "protocol": "The effect of polyamines on biofilm formation by Pseudomonas was examined. P. aeriginosa strain PA14 were grown to a mid-logarithmic phase and 1 μl of cells was mixed with 1 μl (10 mM) of each polyamine. The mixture was plated on solid M63 medium."}, "S. aureus strain SCO1": {"tested_on": "S. aureus strain SCO1", "assay": "Submerged biofilm formation, crystal violet staining", "format": "cell-based, Staphylococcus aureus", "details": "norspermidine 10 μM, norspermine 100 μM; library at 500 μM", "protocol": "as §2, §3\nSimilarly, FIGS. 19A-H show the results of S. aureus strain SC-01 grown to a mid-logarithmic phase and diluted 1:1000 into a 12 wells plate in a TSB medium applied with NaCl (3%) and Glucose (0.5%). The medium was applied with norspermidine (10 μM), norspermine (100 μM) or spermine (500 μM). Planktonic cells were removed (19A-D). Wells were washed once, and incubated with Crystal Violet (0.1%) for 15 mins. Wells were washed twice in DDW (19E-H).\nThe effect of certain polyamines combined with biofilm-inhibiting D-amino acids in Staphylococcus was examined. S. aureus strain SC-01 was grown to a mid-logarithmic phase and diluted 1:1000 into a 12 wells plate in a TSB medium applied with NaCl (3%) and Glucose (0.5%). The medium was applied with either norspermidine or D-tyrosine or both as indicated below each panel. Planktonic cells were removed Wells were washed once, and incubated with Crystal Violet (0.1%) for 15 mins. Wells were washed twice in DDW."}, "B. subtilis NCBI 3610": {"tested_on": "B. subtilis NCBI 3610", "assay": "Cell growth in MSgg medium with shaking", "format": "cell-based, Bacillus subtilis", "details": "norspermidine 100 μM", "protocol": "NCBI 3610 was grown in MSgg medium applied with norspermidine (100 μM) with shaking or in untreated medium served as a control (NT). […] Therefore, whether norspermidine interacts directly with the exopolysaccharide was investigated. To attempt to detect such an interaction, dynamic light scattering was used. Dynamic scattering is a standard procedure for measuring the average radius of polymers in which a laser beam is transmitted through a sample containing polymers in solution (Berne, 1976; Orgad et al., 2011; Vinayahan et al., 2010)."}, "[8]": {"tested_on": "exopolysaccharide of B. subtilis NCBI 3610 cells", "assay": "Fluorescence microscopy of exopolysaccharide with concanavalin A-Texas Red", "format": "cell-based, Bacillus subtilis", "details": "norspermidine 25 μM, spermidine 1 mM", "excerpt": "The cells were washed in PBS and stained for exopolysaccharide with a conjugate of concanavalin A with Texas-Red.\nas §4"}, "B. subtilis pellicles": {"tested_on": "B. subtilis pellicles", "assay": "Disassembly of pre-formed pellicles (OD600 of medium vs pellicle)", "format": "cell-based, Bacillus subtilis", "details": "250 μM applied at day 2, additional 24 hrs", "protocol": "After incubation for the indicated times, pellicle material and the medium were separated and each brought to a volume of 3 ml. After mild sonication, the OD600 was determined for each sample. The % of disassembly represents the OD600 of the medium as a percent of the sum of the OD600 of the medium and the OD600 of the pellicle. […] Thus, D-amino acids and norspermidine act synergistically in preventing biofilm formation and triggering the disassembly of mature biofilms.\nWhether polyamines could trigger disassembly of biofilms formed by B. subtilis was examined. B. subtilis wild-type cells grown in liquid biofilm medium. Cells were grown to mid-logarithmic phase and diluted 1:1000 in liquid biofilm media. At day 2, pre-formed pellicles were applied with either PBS (A) or norspermine (250 μM) (B). Pellicles were incubated for additional 24 hrs."}}, "note": "“Also recorded” adds a separate entry of the source."}
{"molecule": "1,3-diaminopropane [Molecule 6]", "values": [{"measurement": "concentration needed for inhibition of biofilm formation", "setting": "[1]", "result": "> 5", "unit": "mM"}]}
{"molecule": "NCCCNCCCN", "note": "[Molecule 1, N-(3-aminopropyl)propane-1,3-diamine]", "values": [{"measurement": "staining of exopolysaccharide, E. coli", "setting": "[2]", "result": "markedly diminished staining"}, {"measurement": "inhibition of biofilm formation by E. coli", "setting": "E. coli strain MC4100", "result": "inhibited the formation of submerged biofilms"}, {"measurement": "reduction of Proteus mirabilis biofilm formation", "setting": "[3]", "result": "sufficient to reduce biofilm formation"}, {"measurement": "inhibition of biofilm formation on solid biofilm medium", "setting": "[4]", "result": "inhibit biofilm formation"}, {"measurement": "effect on residual pellicle of exopolysaccharide mutant", "setting": "[5]; ΔepsH, DS76, 25 μM norspermidine", "result": "little effect"}, {"measurement": "effect on pellicle formation by amyloid fiber mutant", "setting": "[5]; ΔtasA, FC55, 25 μM norspermidine", "result": "abolished pellicle formation"}, {"measurement": "effect on protein component of the matrix (TasA-mCherry)", "setting": "TasA-mCherry", "result": "little or no effect"}, {"measurement": "biofilm-inhibitory activity (library of polyamines)", "setting": "[1]", "result": "exhibited biofilm-inhibitory activity"}, {"measurement": "MBIC- Minimal Biofilm Inhibitory Concentration", "setting": "[1]; B. subtilis biofilm inhibition assay", "result": "25 to 50", "unit": "µM"}, {"measurement": "concentration at which biofilm formation was inhibited", "setting": "[1]; authentic norspermidine, NCBI3610 pellicle", "result": 25, "unit": "µM"}, {"measurement": "inhibition of pellicle formation", "setting": "[1]", "result": "inhibit biofilm formation"}, {"measurement": "staining of exopolysaccharide, S. aureus", "setting": "[6]", "result": "markedly diminished staining"}, {"measurement": "inhibition of biofilm formation by Pseudomonas", "setting": "[7]", "result": "inhibit biofilm formation"}, {"measurement": "inhibition of biofilm formation by S. aureus", "setting": "S. aureus strain SCO1", "result": "inhibited the formation of submerged biofilms; also recorded: inhibit biofilm formation"}, {"measurement": "cell growth", "setting": "B. subtilis NCBI 3610", "result": "not significantly inhibited"}, {"measurement": "pattern of exopolysaccharide staining", "setting": "[8]", "result": "disrupted the relatively uniform, cell-associated pattern of staining"}]}
{"molecule": "NCCCNCCCNCCCN", "note": "[Molecule 2, N′-[3-(3-aminopropylamino)propyl]propane-1,3-diamine]", "values": [{"measurement": "inhibition of biofilm formation by E. coli", "setting": "E. coli strain MC4100", "result": "inhibited the formation of submerged biofilms"}, {"measurement": "reduction of Proteus mirabilis biofilm formation", "setting": "[3]", "result": "sufficient to reduce biofilm formation"}, {"measurement": "disassembly of pre-formed pellicles", "setting": "B. subtilis pellicles", "result": "triggered disassembly"}, {"measurement": "inhibition of biofilm formation on solid biofilm medium", "setting": "[4]", "result": "inhibit biofilm formation"}, {"measurement": "biofilm-inhibitory activity (library of polyamines)", "setting": "[1]", "result": "exhibited biofilm-inhibitory activity"}, {"measurement": "inhibition of pellicle formation", "setting": "[1]", "result": "inhibit biofilm formation"}, {"measurement": "inhibition of biofilm formation by Pseudomonas", "setting": "[7]", "result": "inhibit biofilm formation"}, {"measurement": "inhibition of biofilm formation by S. aureus", "setting": "S. aureus strain SCO1", "result": "inhibited the formation of submerged biofilms; also recorded: inhibit biofilm formation"}]}
{"molecule": "NCCCCNCCCN", "note": "[Molecule 3, spermidine, reference compound]", "values": [{"measurement": "inhibition of biofilm formation on solid biofilm medium", "setting": "[4]", "result": "do not"}, {"measurement": "concentration needed for inhibition of biofilm formation", "setting": "[1]", "result": "> 2", "unit": "mM"}, {"measurement": "inhibition of pellicle formation", "setting": "[1]", "result": "do not"}, {"measurement": "pattern of exopolysaccharide staining", "setting": "[8]", "result": "No such effect"}]}
{"molecule": "NCCCN(CCCN)CCCN", "note": "[Molecule 21, N^1,N^1-bis(3-aminopropyl)propane-1,3-diamine]", "values": [{"measurement": "biofilm-inhibitory activity (library of polyamines)", "setting": "[1]", "result": "did not block activity"}]}
{"molecule": "C1CNCCCNCCCNC1", "note": "[c, 1,5,9-triazacyclododecane]", "values": [{"measurement": "inhibition of biofilm formation on solid biofilm medium", "setting": "[4]", "result": "inhibits biofilm formation"}, {"measurement": "inhibition of pellicle formation", "setting": "[1]", "result": "inhibits biofilm formation"}]}
{"molecule": "speramide [reference compound]", "values": [{"measurement": "inhibition of biofilm formation on solid biofilm medium", "setting": "[4]", "result": "do not"}, {"measurement": "inhibition of pellicle formation", "setting": "[1]", "result": "do not"}]}
